# Laboratory results from ChEMBL document CHEMBL1144764, “A molecular modeling study of the interaction of 2'-fluoro-substituted analogues of dUMP/FdUMP with thymidylate synthase” (Bioorg Med Chem Lett, 2008).
# Target: Thymidylate synthase (Homo sapiens, UniProt P04818)
# Sequence (P04818 whole entry): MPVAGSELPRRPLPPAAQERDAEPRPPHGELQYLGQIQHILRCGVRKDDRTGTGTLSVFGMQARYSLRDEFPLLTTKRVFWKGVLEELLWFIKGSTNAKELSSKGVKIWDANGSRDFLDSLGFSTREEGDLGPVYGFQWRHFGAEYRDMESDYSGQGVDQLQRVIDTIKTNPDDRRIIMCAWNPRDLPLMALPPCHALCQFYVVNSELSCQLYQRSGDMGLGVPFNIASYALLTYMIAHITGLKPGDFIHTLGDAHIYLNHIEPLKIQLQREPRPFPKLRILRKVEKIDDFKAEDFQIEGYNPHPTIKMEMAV
# Description: Binding affinity to human recombinant thymidylate synthase
row,Ki,Compound
1,433 µM,O=c1ccn([C@@H]2O[C@H](COP(=O)(O)O)[C@@H](O)C2(F)F)c(=O)[nH]1
2,10.3 µM,O=c1ccn([C@@H]2O[C@H](COP(=O)(O)O)[C@@H](O)[C@@H]2F)c(=O)[nH]1
